Measurements published in patent US20250368666A1, “INDAZOLE COMPOUNDS” (TYRA BIOSCIENCES, INC., priority 2022, published 2025).

Key:
FGFR2 = target: T1, FGFR2 (Homo sapiens, UniProt P21802); assay: Kinase binding assay (kinase-tagged T7 phage, affinity beads, qPCR), Kd; settings: read-out: FGFR2 (Kd nM)
T1 construct: made in house; host or cells: E. coli (BL21-derived), T7 phage
Outline: (§1)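 Readout was qPCR of kinase eluted from ligand-coated affinity beads after competition with test compound. Kinases were expressed as T7 phage fusions in E. coli. Binding constants were derived by non-linear least-squares Hill fitting, Hill slope −1.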

FGFR1 = target: T2, FGFR1 (Homo sapiens, UniProt P11362); assay: as above; settings: read-out: FGFR1 (Kd nM)
T2 construct: made in house; host or cells: E. coli (BL21-derived), T7 phage
T2 sequence (P11362 22-822): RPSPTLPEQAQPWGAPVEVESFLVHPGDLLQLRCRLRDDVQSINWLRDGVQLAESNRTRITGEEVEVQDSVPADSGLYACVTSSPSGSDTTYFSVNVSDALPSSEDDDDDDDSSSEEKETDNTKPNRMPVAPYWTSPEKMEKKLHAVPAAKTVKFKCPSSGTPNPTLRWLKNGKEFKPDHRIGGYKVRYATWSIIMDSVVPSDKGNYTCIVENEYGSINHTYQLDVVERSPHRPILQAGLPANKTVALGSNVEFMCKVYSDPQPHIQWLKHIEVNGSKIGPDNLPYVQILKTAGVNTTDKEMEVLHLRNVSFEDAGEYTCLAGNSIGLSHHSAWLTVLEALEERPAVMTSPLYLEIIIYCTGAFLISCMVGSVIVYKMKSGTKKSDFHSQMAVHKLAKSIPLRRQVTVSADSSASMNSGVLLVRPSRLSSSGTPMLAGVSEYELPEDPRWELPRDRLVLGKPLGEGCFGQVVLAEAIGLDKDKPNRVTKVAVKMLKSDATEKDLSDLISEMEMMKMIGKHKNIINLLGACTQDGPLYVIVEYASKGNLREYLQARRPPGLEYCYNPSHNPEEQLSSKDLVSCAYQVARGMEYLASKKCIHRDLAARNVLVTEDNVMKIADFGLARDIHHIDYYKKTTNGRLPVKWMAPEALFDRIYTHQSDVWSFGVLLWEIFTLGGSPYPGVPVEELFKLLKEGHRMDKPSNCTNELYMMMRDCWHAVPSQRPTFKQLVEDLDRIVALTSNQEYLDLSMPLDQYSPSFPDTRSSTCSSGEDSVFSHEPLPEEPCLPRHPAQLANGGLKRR
Outline: as §1

FGFR4 = target: T3, FGFR4 (Homo sapiens, UniProt P22455); assay: as above; settings: read-out: FGFR4 (Kd nM)
T3 construct: made in house; host or cells: E. coli (BL21-derived), T7 phage
T3 sequence (P22455 22-802): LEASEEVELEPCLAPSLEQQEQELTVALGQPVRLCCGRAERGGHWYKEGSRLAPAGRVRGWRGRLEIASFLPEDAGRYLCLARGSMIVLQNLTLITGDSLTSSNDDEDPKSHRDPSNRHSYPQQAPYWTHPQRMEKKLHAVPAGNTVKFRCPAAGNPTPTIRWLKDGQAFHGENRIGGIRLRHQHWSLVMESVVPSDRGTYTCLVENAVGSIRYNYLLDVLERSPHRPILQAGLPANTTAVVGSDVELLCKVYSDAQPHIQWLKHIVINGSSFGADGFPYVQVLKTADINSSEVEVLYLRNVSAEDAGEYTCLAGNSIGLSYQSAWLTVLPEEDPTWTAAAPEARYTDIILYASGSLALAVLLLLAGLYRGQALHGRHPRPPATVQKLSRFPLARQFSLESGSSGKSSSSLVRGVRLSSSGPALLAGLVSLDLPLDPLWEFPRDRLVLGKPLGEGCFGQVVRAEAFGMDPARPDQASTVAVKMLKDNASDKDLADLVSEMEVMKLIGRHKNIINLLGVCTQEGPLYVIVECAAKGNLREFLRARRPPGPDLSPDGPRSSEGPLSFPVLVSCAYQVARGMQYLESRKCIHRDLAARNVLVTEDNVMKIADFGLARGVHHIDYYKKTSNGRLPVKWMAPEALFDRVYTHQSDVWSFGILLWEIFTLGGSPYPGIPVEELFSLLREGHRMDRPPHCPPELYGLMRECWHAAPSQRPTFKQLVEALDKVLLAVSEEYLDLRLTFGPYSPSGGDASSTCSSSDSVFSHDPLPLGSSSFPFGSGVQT
Outline: as §1

FGFR3 = target: T4, FGFR3 (Homo sapiens, UniProt P22607); assay: as above; settings: read-out: FGFR3 (Kd nM)
T4 construct: made in house; host or cells: E. coli (BL21-derived), T7 phage
T4 sequence (P22607 23-806): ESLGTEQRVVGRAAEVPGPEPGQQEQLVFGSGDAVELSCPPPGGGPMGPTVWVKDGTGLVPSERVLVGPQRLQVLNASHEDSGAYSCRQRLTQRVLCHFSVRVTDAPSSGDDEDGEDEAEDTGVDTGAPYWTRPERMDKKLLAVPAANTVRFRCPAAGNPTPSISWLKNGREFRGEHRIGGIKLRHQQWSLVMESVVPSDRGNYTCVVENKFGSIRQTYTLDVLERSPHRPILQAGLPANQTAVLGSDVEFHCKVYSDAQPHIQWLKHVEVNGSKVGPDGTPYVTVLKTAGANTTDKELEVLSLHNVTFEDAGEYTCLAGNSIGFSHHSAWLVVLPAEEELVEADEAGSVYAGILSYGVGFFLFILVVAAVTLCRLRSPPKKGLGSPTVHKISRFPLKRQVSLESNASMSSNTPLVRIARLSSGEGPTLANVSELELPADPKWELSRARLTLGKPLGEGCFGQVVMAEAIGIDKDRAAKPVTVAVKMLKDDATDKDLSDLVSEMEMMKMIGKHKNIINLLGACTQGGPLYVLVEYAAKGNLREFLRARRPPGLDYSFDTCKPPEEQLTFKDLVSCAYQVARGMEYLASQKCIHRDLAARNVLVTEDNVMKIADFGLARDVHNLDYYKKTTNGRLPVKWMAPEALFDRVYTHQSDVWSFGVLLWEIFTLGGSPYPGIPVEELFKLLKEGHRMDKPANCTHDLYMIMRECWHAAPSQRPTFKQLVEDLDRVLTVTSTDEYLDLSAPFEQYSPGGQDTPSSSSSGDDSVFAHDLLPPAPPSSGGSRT
Outline: as §1

FGFR3 (V555M) = target: T5, FGFR3 (V555M) (Homo sapiens, UniProt P22607, V555M); assay: as above; settings: V555M mutant; read-out: FGFR3 (V555M) (Kd nM)
T5 construct: made in house; host or cells: E. coli (BL21-derived), T7 phage
T5 sequence (P22607 23-806 V555M): as the sequence (P22607 23-806) above, with V533M counted along it
Outline: as §1

[1] = test system: HuH7 cell line (FGF19 amplification); assay: Cancer cell line cell viability assay (Cell Titer-Glo), 120 hr; type: cell-based; settings: Homo sapiens, Huh-7
Excerpt: Experimental Purpose: To detect the change of intracellular ATP by Cell Titer-Glo® and to evaluate the inhibitory effect of the compounds on cancer cell lines by determining the in vitro IC50 value of the compounds.
Cell Titer-Glo® 2.0 Luminescent cell viability assay reagent was purchased from Promega (Madison, WI). KG-1, KATO-III, and MDA-MB-453 cell lines were purchased from American Type Culture Collection (Manassas, VA). RT112/84 cell line was purchased from Millipore-Sigma (St. Louis, MO). HuH7 cells were purchased from Seikisui Xenotech (Kansas City, KS). RT112/84 and MDA-MB-453 cells were cultured in RPMI1640 media supplemented with 10% fetal bovine serum. KG-1 and KATO-III cell lines were cultured in IMDM media supplemented with 20% FBS. HuH7 cells were cultured in IMDM media supplemented with 10% FBS. Cultures were maintained at 37° C. in a humidified atmosphere of 5% CO2 and 95% air.
Cell Viability Assay Procedure: Cells were plated in 96-well clear bottom/white plates (Corning #3903) at a range of densities depending on the optimal assay window (5,000-20,000 cells/well in […] of media), incubated overnight. The next day, test compound DMSO stock solutions were made at 10 mM and […] final concentration. Compounds were then added to cells in a 9-dose, 4-fold dilution series starting at 3 μM with an HP 300e Digital Dispenser (each dose was applied in triplicate). DMSO was backfilled to each well up to 301 nL total volume of test compound+DMSO, and a total of 301 nL DMSO was added to a control/no test compound well in triplicate. The cells in cell culture plates were incubated with the compounds at 37° C. and 5% CO2 for 72 hours-120 hours depending on the cell line. Then 50 μl of Cell Titer Glo 2.0 reagent was added to each well of the cell culture plates. The contents were covered from light and mixed on an orbital shaker at room temperature for minimum of 10 min. Luminescence was recorded by a Clariostar Plus Microplate Reader (BMG Labtech, Cary, NC). Cells were assessed as a percentage of DMSO only treated control cells. Curves were plotted and IC50 values were calculated using the GraphPad Prism 9 program based on a sigmoidal dose-response equation (log (inhibitor) vs. response—Variable slope, 4-parameter).

T1 sequence (P21802 22-821): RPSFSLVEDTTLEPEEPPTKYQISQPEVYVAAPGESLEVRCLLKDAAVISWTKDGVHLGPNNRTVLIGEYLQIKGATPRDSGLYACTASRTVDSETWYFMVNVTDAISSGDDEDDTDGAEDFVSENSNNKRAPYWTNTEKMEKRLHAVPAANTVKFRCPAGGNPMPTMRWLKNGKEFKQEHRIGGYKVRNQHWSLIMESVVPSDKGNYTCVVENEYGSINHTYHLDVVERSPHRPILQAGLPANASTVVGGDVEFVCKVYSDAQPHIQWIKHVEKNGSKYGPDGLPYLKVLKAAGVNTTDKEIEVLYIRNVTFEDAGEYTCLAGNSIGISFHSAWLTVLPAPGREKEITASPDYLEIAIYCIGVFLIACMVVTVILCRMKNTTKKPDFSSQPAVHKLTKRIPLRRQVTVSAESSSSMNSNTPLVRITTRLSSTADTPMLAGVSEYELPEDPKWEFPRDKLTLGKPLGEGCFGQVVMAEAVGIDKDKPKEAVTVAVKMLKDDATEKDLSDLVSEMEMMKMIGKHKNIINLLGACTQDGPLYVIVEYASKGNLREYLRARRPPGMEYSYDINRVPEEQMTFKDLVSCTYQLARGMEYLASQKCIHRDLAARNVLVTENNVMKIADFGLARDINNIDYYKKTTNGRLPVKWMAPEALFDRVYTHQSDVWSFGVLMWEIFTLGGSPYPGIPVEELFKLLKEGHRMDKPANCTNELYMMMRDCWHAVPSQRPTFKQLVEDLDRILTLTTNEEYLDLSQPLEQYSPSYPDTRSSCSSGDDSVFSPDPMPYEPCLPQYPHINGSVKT

Kd (FGFR2)	Kd (FGFR1)	Kd (FGFR4)	Kd (FGFR3)	Kd (FGFR3 (V555M))	IC50 [1]	SMILES
50 to 300 nM	300 to 1000 nM	1 to 50 nM	1 to 50 nM	1 to 50 nM	0.05 to 0.2 µM	Cc1ncc(Cl)c([C@@H](C)Oc2ccc3[nH]nc(-c4cnc(N5CC(C)(N6CCOCC6)C5)c(C#N)c4)c3c2)c1Cl [Example 38, 5-[5-[(1R)-1-(3,5-dichloro-2-methyl-4-pyridyl)ethoxy]-1H-indazol-3-yl]-2-(3-methyl-3-morpholino-azetidin-1-yl)pyridine-3-carbonitrile]
50 to 300 nM	50 to 300 nM	1 to 50 nM	1 to 50 nM	1 to 50 nM	0.05 to 0.2 µM	Cc1ncc(Cl)c([C@@H](C)Oc2ccc3[nH]nc(-c4cnc(N5CC(C)(N)C5)c(C#N)c4)c3c2)c1Cl [Example 39, 2-(3-amino-3-methyl-azetidin-1-yl)-5-[5-[(1R)-1-(3,5-dichloro-2-methyl-4-pyridyl)ethoxy]-1H-indazol-3-yl]pyridine-3-carbonitrile]
50 to 300 nM	50 to 300 nM	1 to 50 nM	1 to 50 nM	1 to 50 nM	0.05 to 0.2 µM	Cc1ncc(Cl)c([C@@H](C)Oc2ccc3[nH]nc(-c4cnc(N5CC(C)(N(C)C)C5)c(C#N)c4)c3c2)c1Cl [Example 45, 5-[5-[(1R)-1-(3,5-dichloro-2-methyl-4-pyridyl)ethoxy]-1H-indazol-3-yl]-2-[3-(dimethylamino)-3-methyl-azetidin-1-yl]pyridine-3-carbonitrile]
1 to 50 nM	1 to 50 nM	1 to 50 nM	1 to 50 nM	1 to 50 nM	0.0001 to 0.05 µM	COc1cc2[nH]nc(-c3cnc(N4CC5(CC5)C4)nc3)c2cc1O[C@H](C)c1c(Cl)cncc1Cl [Example 62, 3-[2-(5-azaspiro[2.3]hexan-5-yl)pyrimidin-5-yl]-5-[(1R)-1-(3,5-dichloro-4-pyridyl)ethoxy]-6-methoxy-1H-indazole]
50 to 300 nM	50 to 300 nM	1 to 50 nM	1 to 50 nM	1 to 50 nM	0.05 to 0.2 µM	C[C@@H](Oc1cc2c(-c3cnc(N4CC(C)(N5CCOCC5)C4)c(C#N)c3)n[nH]c2cc1F)c1c(Cl)cncc1Cl [Example 124, (R)-5-(5-(1-(3,5-dichloropyridin-4-yl)ethoxy)-6-fluoro-1H-indazol-3-yl)-2-(3-methyl-3-morpholinoazetidin-1-yl)nicotinonitrile]
1 to 50 nM	1 to 50 nM	1 to 50 nM	1 to 50 nM	1 to 50 nM	0.05 to 0.2 µM	C[C@@H](Oc1cc2c(-c3cnc(N4CC(C)(N5CCC5)C4)c(C#N)c3)n[nH]c2cc1F)c1c(Cl)cncc1Cl [Example 136, (R)-5-(5-(1-(3,5-dichloropyridin-4-yl)ethoxy)-6-fluoro-1H-indazol-3-yl)-2-(3′-methyl-[1,3′-biazetidin]-1′-yl)nicotinonitrile]
50 to 300 nM	50 to 300 nM	1 to 50 nM	1 to 50 nM	1 to 50 nM	0.05 to 0.2 µM	C[C@@H](Oc1cc2c(-c3cnc(N4CC(C)(CN5CCOCC5)C4)c(C#N)c3)n[nH]c2cc1F)c1c(Cl)cncc1Cl [Example 137, (R)-5-(5-(1-(3,5-dichloropyridin-4-yl)ethoxy)-6-fluoro-1H-indazol-3-yl)-2-(3-methyl-3-(morpholinomethyl)aze-tidin-1-yl)nicotinonitrile]
300 to 1000 nM	300 to 1000 nM	1 to 50 nM	50 to 300 nM	50 to 300 nM	0.2 to 1 µM	COc1cc2[nH]nc(-c3cnc(N4CC(C)(NC(C)C)C4)c(C#N)c3)c2cc1O[C@@H](C)c1c(Cl)cncc1Cl [Example 330, (S)-5-(5-(1-(3,5-dichloropyridin-4-yl)ethoxy)-6-methoxy-1H-indazol-3-yl)-2-(3-(isopropylamino)-3-methylazetidin-1-yl)nicotinonitrile]
300 to 1000 nM	300 to 1000 nM	1 to 50 nM	50 to 300 nM	50 to 300 nM	0.2 to 1 µM	COc1cc2[nH]nc(-c3cnc(N4CC(C)(NCC(C)(C)O)C4)c(C#N)c3)c2cc1O[C@@H](C)c1c(Cl)cncc1Cl [Example 331, (S)-5-(5-(1-(3,5-dichloropyridin-4-yl)ethoxy)-6-methoxy-1H-indazol-3-yl)-2-(3-((2-hydroxy-2-methylpro-pyl)amino)-3-methylazetidin-1-yl)nicotinonitrile]
> 1000 nM	> 1000 nM	1 to 50 nM	300 to 1000 nM	300 to 1000 nM	0.2 to 1 µM	COc1cc2[nH]nc(-c3cnc(N4CC(C)(CS(C)(=O)=O)C4)c(C#N)c3)c2cc1O[C@@H](C)c1c(Cl)cncc1Cl [Example 332, (S)-5-(5-(1-(3,5-dichloropyridin-4-yl)ethoxy)-6-methoxy-1H-indazol-3-yl)-2-(3-methyl-3-((methyl-sulfonyl)meth-yl)azetidin-1-yl)nicotinonitrile]
> 1000 nM	300 to 1000 nM	1 to 50 nM	50 to 300 nM	50 to 300 nM	0.2 to 1 µM	COc1cc2[nH]nc(-c3cnc(N4CC(C)(NCC5CC5)C4)c(C#N)c3)c2cc1O[C@@H](C)c1c(Cl)cncc1Cl [Example 333, (S)-2-(3-((cyclopropyl-methyl)amino)-3-methylazetidin-1-yl)-5-(5-(1-(3,5-dichloropyridin-4-yl)ethoxy)-6-methoxy-1H-indazol-3-yl)nicotinonitrile]
> 1000 nM	> 1000 nM	1 to 50 nM	300 to 1000 nM	300 to 1000 nM	0.2 to 1 µM	COc1cc2[nH]nc(-c3cnc(N4C[C@H](CS(C)(=O)=O)[C@H]4C)c(C#N)c3)c2cc1O[C@@H](C)c1c(Cl)cncc1Cl [Example 335, 5-(5-((S)-1-(3,5-dichloropyridin-4-yl)ethoxy)-6-methoxy-1H-indazol-3-yl)-2-((2R,3S)-2-methyl-3-((meth-ylsulfonyl)meth-yl)azetidin-1-yl)nicotinonitrile]
1 to 50 nM	1 to 50 nM	1 to 50 nM	1 to 50 nM	1 to 50 nM	0.0001 to 0.05 µM	COc1cc2[nH]nc(-c3cnc(N4CC(C)(N5C[C@@H]6C[C@H]5CO6)C4)c(C#N)c3)c2cc1O[C@H](C)c1c(Cl)cncc1Cl [Example 336, -(3-((1S,4S)-2-oxa-5-aza-bicyclo[2.2.1]hep-tan-5-y1)-3-methylazetidin-1-yl)-5-(5-((R)-1-(3,5-dichloropyridin-4-yl)ethoxy)-6-methoxy-1H-indazol-3-yl)nicotinonitrile]

SMILES	Kd (FGFR2)	Kd (FGFR1)	Kd (FGFR4)	Kd (FGFR3)	Kd (FGFR3 (V555M))	IC50 [1]
Cc1ncc(Cl)c([C@@H](C)Oc2ccc3[nH]nc(-c4cnc(N5CC(C)(OC6CCC6)C5)c(C#N)c4)c3c2)c1Cl [Example 46, (R)-2-(3-Cyclobutoxy-3-methylazetidin-1-yl)-5-(5-(1-(3,5-dichloro-2-methyl-pyridin-4-yl)ethoxy)-1H-indazol-3-yl)nicotinonitrile]	> 1000 nM	> 1000 nM	1 to 50 nM	300 to 1000 nM	50 to 300 nM	> 1 µM
